Assays:
Staphylococcus epidermis = assay: Qualitative dye staining on agarose pads (EVOS M7000); format: cell-based; parameters: key to Relative fluorescent intensity: Very high: If the cells looked twice as big in the fluorescent channel, it was marked as having “very high” relative fluorescent intensity; High: if the cells looked bigger in the fluorescent channel, it was marked as having “high” relative fluorescent intensity; Medium: If the cells looked almost the same size in the fluorescent channel and the bright field, it was marked as having “medium” relative fluorescent intensity; Low: If the cells looked smaller in the fluorescent channel as compared to the brightfield but still the whole cell was visible, it was marked as having “low” relative fluorescent intensity; Negligible: If only a few traces of a cell was visible in the fluorescent channel, it was marked as having “negligible” relative fluorescent intensity; settings: DiSC3(5) 3 μM, SYBR Green I 10×, SYTO 13 3 μM, FM4-64 15 μM
Streptococcus agalactiae = assay: as above; format: cell-based; parameters: key to Relative fluorescent intensity: Very high: If the cells looked twice as big in the fluorescent channel, it was marked as having “very high” relative fluorescent intensity; High: if the cells looked bigger in the fluorescent channel, it was marked as having “high” relative fluorescent intensity; Medium: If the cells looked almost the same size in the fluorescent channel and the bright field, it was marked as having “medium” relative fluorescent intensity; Low: If the cells looked smaller in the fluorescent channel as compared to the brightfield but still the whole cell was visible, it was marked as having “low” relative fluorescent intensity; Negligible: If only a few traces of a cell was visible in the fluorescent channel, it was marked as having “negligible” relative fluorescent intensity; settings: DiSC3(5) 3 μM, SYBR Green I 10×, SYTO 13 3 μM, FM4-64 15 μM
[1] = Table 6 thresholds, Staphylococcus epidermis
[2] = Table 8 sample Staphylococcus epidermis (044)
[3] = Table 8 sample Staphylococcus epidermis (045)
[4] = Table 8 sample Staphylococcus epidermis (046)
[5] = Table 6 thresholds, Streptococcus agalactiae
[6] = Table 7 commercial strain Streptococcus agalactiae NCTC 11239
[7] = Table 8 sample Streptococcus agalactiae (081)
[8] = Table 8 sample Streptococcus agalactiae (082)
[9] = Table 8 sample Streptococcus agalactiae (083)

| SMILES | Percentage of cells stained (Staphylococcus epidermis; [1]) | Relative fluorescent intensity (Staphylococcus epidermis; [1]) | Percentage of cells stained (Staphylococcus epidermis; [2]) | Relative fluorescent intensity (Staphylococcus epidermis; [2]) | Percentage of cells stained (Staphylococcus epidermis; [3]) | Relative fluorescent intensity (Staphylococcus epidermis; [3]) | Percentage of cells stained (Staphylococcus epidermis; [4]) | Relative fluorescent intensity (Staphylococcus epidermis; [4]) | Percentage of cells stained (Streptococcus agalactiae; [5]) | Relative fluorescent intensity (Streptococcus agalactiae; [5]) | Percentage of cells stained (Streptococcus agalactiae; [6]) | Relative fluorescent intensity (Streptococcus agalactiae; [6]) | Percentage of cells stained (Streptococcus agalactiae; [7]) | Relative fluorescent intensity (Streptococcus agalactiae; [7]) | Percentage of cells stained (Streptococcus agalactiae; [8]) | Relative fluorescent intensity (Streptococcus agalactiae; [8]) | Percentage of cells stained (Streptococcus agalactiae; [9]) | Relative fluorescent intensity (Streptococcus agalactiae; [9]) | Relative fluorescent intensity (Streptococcus agalactiae; Table 6 thresholds, Streptococcus agalactiae, listed as SYBR Green) |
| --- | --- | --- | --- | --- | --- | --- | --- | --- | --- | --- | --- | --- | --- | --- | --- | --- | --- | --- | --- |
| CCCN1C(=CC=CC=Cc2sc3ccccc3[n+]2CCC)Sc2ccccc21.[I-] [DiSC3(5), 3,3′-Dipropylthiadicarbocyanine Iodide] | Almost all | Very high | Almost all | Very high | Almost all | Very high | Almost all | Very high | Almost all | low and Low | Almost all | Low | Almost all | Low | Almost all | Low | Almost all | Low |  |
| CCN(CC)c1ccc(C=CC=CC=Cc2cc[n+](CCC[N+](CC)(CC)CC)cc2)cc1.[Br-].[Br-] [FM 4-64, N-(3-Triethylammoniumpropyl)-4-(6-(4-(Diethylamino) Phenyl) Hexatrienyl) Pyridinium Dibromide] | Almost all | Medium | Almost all | Medium | Almost all | Medium | Almost all | Medium | Almost all | High | Almost all | High | Almost all | High | Almost all | High | Almost all | High |  |
| CCCN(CCCN(C)C)c1cc(/C=C2/Sc3ccccc3N2C)c2ccccc2[n+]1-c1ccccc1 [SYBR Green I, N′,N′-dimethyl-N-[4-[(E)-(3-methyl-1,3-benzothiazol-2-ylidene)methyl]-1-phenylquinolin-1-ium-2-yl]-N-propylpropane-1,3-diamine] | Almost all | High | Almost all | High | Almost all | High | Almost all | High | Almost all | very high | Almost all | Very high | Almost all | Very high | Almost all | Very high | Almost all | Very high | Very high |
